Earlier results in article PMC4232468 (Nature chemical biology, 2014).

Cc1ccc2c(=O)c3cccc(CC(=O)O)c3oc2c1C [DMXAA, 5,6-dimethylxanthenone-4-acetic acid]
activation of mouse STING (mouse STING (mSTING)): activates mouse STING (mSTING) | activation of human STING (human STING (hSTING)): not human STING (hSTING)
